Results: ChEMBL document CHEMBL5291721, “A preclinical secondary pharmacology resource illuminates target-adverse drug reaction associations of marketed drugs” (Nat Commun, 2023)

Assays:
Bile salt export pump = Bile salt export pump (Homo sapiens, UniProt O95342); type: functional
Adenosine receptor A1 = target: T1, Adenosine receptor A1 (Homo sapiens, UniProt P30542)
T1 sequence (P30542 whole entry): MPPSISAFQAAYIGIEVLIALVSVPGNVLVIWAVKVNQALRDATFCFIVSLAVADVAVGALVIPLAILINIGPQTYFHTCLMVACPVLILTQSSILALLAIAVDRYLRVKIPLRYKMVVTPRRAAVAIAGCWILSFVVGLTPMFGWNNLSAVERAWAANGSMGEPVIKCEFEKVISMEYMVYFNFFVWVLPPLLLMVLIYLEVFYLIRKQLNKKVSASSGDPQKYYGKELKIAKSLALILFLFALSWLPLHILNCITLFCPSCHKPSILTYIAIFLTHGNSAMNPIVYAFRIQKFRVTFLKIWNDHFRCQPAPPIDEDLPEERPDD

Adenosine receptor A3 = target: T2, Adenosine receptor A3 (Homo sapiens, UniProt P0DMS8)
T2 sequence (P0DMS8 whole entry): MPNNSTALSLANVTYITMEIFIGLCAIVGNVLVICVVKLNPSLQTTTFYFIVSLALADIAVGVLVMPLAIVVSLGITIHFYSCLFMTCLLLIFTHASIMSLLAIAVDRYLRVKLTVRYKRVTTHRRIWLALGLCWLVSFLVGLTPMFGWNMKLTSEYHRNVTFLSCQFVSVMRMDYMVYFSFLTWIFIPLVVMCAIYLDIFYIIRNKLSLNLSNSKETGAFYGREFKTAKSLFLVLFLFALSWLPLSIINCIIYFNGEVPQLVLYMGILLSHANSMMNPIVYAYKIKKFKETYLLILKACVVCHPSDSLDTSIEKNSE

[1] = target: T3, Alpha-2A adrenergic receptor (Homo sapiens, UniProt P08913); type: functional, cell-based
T3 sequence (P08913 whole entry): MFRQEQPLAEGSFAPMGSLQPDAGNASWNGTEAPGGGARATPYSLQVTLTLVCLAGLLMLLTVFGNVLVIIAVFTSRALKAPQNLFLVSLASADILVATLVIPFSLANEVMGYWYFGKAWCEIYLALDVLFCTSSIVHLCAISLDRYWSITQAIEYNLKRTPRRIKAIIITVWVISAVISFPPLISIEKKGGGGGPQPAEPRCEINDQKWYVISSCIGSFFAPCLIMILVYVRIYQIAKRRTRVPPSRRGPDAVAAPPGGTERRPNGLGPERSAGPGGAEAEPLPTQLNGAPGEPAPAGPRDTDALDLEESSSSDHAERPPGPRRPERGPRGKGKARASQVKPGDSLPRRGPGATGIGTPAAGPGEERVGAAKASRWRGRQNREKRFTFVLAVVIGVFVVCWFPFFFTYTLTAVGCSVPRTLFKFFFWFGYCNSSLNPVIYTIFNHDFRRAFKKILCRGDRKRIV

[2] = target: T4, Type-1 angiotensin II receptor (Homo sapiens, UniProt P30556)
T4 sequence (P30556 whole entry): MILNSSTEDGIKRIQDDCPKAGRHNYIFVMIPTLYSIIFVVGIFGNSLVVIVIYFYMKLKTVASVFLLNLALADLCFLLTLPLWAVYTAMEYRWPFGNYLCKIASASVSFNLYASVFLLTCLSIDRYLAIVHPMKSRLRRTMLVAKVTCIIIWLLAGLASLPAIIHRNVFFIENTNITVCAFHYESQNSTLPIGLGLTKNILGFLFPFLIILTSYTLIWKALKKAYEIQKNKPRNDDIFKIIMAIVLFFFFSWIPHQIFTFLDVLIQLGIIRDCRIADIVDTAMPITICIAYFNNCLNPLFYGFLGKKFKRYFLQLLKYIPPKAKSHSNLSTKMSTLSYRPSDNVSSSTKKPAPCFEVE

[3] = target: T5, Muscarinic acetylcholine receptor M2 (Homo sapiens, UniProt P08172); type: functional, cell-based
T5 sequence (P08172 whole entry): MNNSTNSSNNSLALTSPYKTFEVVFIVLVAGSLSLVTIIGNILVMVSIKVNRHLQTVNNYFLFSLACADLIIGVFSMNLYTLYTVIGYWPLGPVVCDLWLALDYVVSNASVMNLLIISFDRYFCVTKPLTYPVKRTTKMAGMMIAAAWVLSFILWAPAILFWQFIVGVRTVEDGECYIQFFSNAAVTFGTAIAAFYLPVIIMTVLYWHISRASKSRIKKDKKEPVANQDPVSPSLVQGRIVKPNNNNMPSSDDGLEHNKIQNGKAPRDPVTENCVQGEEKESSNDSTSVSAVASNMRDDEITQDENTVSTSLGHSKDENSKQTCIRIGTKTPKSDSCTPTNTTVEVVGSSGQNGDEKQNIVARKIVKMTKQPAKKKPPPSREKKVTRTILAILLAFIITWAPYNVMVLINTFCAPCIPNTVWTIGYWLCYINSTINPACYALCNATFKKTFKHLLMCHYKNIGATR

[4] = target: Sodium-dependent dopamine transporter (Homo sapiens, UniProt Q01959)
Chain of Sodium-dependent dopamine transporter (Q01959 whole entry): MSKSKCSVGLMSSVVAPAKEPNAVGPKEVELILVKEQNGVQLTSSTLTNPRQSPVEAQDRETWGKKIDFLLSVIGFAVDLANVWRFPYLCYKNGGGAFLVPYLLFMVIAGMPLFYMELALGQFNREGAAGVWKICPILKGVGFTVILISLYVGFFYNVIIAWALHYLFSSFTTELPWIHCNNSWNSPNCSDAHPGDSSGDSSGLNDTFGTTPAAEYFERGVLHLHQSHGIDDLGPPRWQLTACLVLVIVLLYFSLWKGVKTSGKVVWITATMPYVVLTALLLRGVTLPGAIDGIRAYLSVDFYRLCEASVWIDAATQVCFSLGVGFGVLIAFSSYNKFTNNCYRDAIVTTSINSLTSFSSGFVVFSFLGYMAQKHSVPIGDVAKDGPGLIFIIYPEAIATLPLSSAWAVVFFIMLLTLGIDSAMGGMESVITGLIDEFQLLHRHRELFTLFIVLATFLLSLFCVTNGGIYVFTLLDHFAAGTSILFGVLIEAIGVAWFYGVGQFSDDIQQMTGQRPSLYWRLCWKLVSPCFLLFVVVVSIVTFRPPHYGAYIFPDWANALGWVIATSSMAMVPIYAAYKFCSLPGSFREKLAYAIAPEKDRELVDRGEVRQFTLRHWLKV

[5] = target: T6, Amine oxidase [flavin-containing] A (Homo sapiens, UniProt P21397); type: functional
T6 sequence (P21397 whole entry): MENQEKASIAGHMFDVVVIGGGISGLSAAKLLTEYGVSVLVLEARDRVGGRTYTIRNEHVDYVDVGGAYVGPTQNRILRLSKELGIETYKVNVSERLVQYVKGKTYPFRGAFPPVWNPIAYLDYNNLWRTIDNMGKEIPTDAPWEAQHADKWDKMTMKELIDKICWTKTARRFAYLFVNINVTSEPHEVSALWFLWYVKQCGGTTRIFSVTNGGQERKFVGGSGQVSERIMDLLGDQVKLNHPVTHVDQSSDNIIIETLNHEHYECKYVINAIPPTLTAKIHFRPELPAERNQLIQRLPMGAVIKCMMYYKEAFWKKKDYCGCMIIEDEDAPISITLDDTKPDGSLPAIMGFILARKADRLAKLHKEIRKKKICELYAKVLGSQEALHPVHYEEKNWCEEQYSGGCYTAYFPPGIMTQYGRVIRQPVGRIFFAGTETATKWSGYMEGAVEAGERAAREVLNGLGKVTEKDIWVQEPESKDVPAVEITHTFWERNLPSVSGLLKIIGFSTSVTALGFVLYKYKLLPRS
Also: assay procedure not described here.

Chain of Bile salt export pump (O95342 whole entry): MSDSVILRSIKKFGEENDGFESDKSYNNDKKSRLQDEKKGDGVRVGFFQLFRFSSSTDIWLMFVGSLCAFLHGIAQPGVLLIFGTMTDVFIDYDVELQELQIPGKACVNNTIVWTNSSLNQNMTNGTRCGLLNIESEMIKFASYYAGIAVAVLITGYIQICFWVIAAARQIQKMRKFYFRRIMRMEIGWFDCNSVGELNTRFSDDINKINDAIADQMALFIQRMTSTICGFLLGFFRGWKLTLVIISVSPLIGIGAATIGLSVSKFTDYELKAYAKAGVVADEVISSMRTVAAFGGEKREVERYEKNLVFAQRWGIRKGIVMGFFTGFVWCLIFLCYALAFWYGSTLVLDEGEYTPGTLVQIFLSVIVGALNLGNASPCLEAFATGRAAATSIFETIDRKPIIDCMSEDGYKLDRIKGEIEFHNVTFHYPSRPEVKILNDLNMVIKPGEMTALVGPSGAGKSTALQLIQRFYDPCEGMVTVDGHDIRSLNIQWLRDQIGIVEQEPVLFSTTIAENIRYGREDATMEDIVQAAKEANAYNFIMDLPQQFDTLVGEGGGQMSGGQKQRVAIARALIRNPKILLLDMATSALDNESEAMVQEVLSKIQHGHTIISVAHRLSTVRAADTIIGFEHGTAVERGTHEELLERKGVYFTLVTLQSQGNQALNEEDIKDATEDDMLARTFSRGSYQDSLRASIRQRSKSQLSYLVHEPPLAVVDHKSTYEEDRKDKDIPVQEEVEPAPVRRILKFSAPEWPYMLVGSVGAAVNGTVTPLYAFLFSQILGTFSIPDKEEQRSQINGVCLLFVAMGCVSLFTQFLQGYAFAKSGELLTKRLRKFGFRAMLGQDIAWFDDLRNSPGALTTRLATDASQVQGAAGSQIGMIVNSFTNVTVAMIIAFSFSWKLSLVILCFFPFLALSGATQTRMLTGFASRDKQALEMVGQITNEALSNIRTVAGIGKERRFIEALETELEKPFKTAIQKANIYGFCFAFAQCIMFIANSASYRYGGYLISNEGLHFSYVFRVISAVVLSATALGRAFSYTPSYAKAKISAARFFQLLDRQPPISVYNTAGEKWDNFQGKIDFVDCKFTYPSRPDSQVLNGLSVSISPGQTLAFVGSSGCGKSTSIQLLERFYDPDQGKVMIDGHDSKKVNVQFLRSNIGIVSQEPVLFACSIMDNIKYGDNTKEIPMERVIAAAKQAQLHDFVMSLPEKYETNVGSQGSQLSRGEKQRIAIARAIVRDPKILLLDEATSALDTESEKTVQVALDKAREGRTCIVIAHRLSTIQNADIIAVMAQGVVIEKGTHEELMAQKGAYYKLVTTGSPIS

Row | Structure (SMILES) | AC50 (Bile salt export pump) | AC50 (Adenosine receptor A1) | AC50 (Adenosine receptor A3) | AC50 [1] | AC50 [2] | AC50 [3] | AC50 [4] | AC50 [5]
1 | CC1(C)NC(=O)N(c2ccc([N+](=O)[O-])c(C(F)(F)F)c2)C1=O [NILUTAMIDE] | > 300 µM | > 30 µM | > 30 µM | > 30 µM | > 30 µM | > 30 µM | > 30 µM | > 30 µM
2 | Cc1nc([N+](=O)[O-])cn1-c1ccc([N+](=O)[O-])cc1 [NITREFAZOLE] | > 300 µM | > 30 µM | > 30 µM | > 30 µM | > 30 µM | > 30 µM | > 30 µM | > 30 µM
3 | CC[C@H]1[C@@H](O)[C@@H]2[C@H](CC[C@]3(C)[C@@H]([C@H](C)CCC(=O)O)CC[C@@H]23)[C@@]2(C)CC[C@@H](O)C[C@@H]12 [OBETICHOLIC ACID] | > 300 µM | > 30 µM | 23 µM | 11 µM | > 30 µM | > 30 µM | > 30 µM | > 30 µM
4 | COc1ccc(CC(C)(C)NC[C@H](O)c2cc(O)cc3c2OCC(=O)N3)cc1 [OLODATEROL] | > 300 µM | > 30 µM | > 30 µM | 10 µM | > 30 µM | > 30 µM | 11 µM | > 30 µM
5 | c1cnc(N2CCN(Cc3ccc4c(c3)OCO4)CC2)nc1 [PIRIBEDIL] | 130 µM | > 30 µM | > 30 µM | 0.059 µM | > 30 µM | > 30 µM | > 30 µM | > 30 µM
6 | COCCCN1CCC(NC(=O)c2cc(Cl)c(N)c3c2OCC3)CC1 [PRUCALOPRIDE] | > 300 µM | > 30 µM | > 30 µM | > 30 µM | > 30 µM | > 30 µM | > 30 µM | > 30 µM
7 | COc1ccccc1OCC(O)CN1CCN(CC(=O)Nc2c(C)cccc2C)CC1 (stereo not given) [RANOLAZINE] | > 300 µM | > 30 µM | > 30 µM | 7.7 µM | > 30 µM | > 30 µM | > 30 µM | > 30 µM
8 | CO[C@H]1C[C@@H]2CC[C@@H](C)[C@@](O)(O2)C(=O)C(=O)N2CCCC[C@H]2C(=O)O[C@H]([C@H](C)C[C@@H]2CC[C@@H](O)[C@H](OC)C2)CC(=O)[C@H](C)/C=C(\C)[C@@H](O)[C@@H](OC)C(=O)[C@H](C)C[C@H](C)/C=C/C=C/C=C/1C [SIROLIMUS] | 1.01 µM | > 30 µM | 21.3 µM | > 10 µM | > 30 µM | > 10 µM | > 30 µM | 5.6 µM
9 | Cc1cn([C@H]2C=C[C@@H](CO)O2)c(=O)[nH]c1=O [STAVUDINE] | > 300 µM | > 30 µM | > 30 µM | > 10 µM | > 30 µM | > 10 µM | > 10 µM | > 30 µM
10 | Cn1nnc2c(C(N)=O)ncn2c1=O [TEMOZOLOMIDE] | > 300 µM | > 30 µM | > 30 µM | > 30 µM | > 30 µM | > 30 µM | > 30 µM | > 30 µM
11 | O=C(O[C@H]1C[C@H]2CC[C@@H](C1)[N+]21CCCC1)C(O)(c1ccccc1)c1ccccc1 [TROSPIUM] | > 300 µM | > 30 µM | > 30 µM | > 30 µM | > 30 µM | > 30 µM | > 30 µM | > 30 µM
12 | N[C@@H]1[C@H]2CN(c3nc4c(cc3F)c(=O)c(C(=O)O)cn4-c3ccc(F)cc3F)C[C@@H]12 [TROVAFLOXACIN] | > 300 µM | > 30 µM | > 30 µM | > 30 µM | > 30 µM | > 30 µM | > 30 µM | > 30 µM
13 | Nc1ccn([C@H]2CC[C@@H](CO)O2)c(=O)n1 [ZALCITABINE] | > 300 µM | > 10 µM | > 10 µM | > 10 µM | > 10 µM | > 10 µM | > 10 µM | > 10 µM
14 | Cc1cn([C@H]2C[C@H](N=[N+]=[N-])[C@@H](CO)O2)c(=O)[nH]c1=O [ZIDOVUDINE] | > 300 µM | > 30 µM | > 30 µM | > 10 µM | > 30 µM | > 10 µM | > 10 µM | > 10 µM
15 | NS(=O)(=O)Cc1noc2ccccc12 [ZONISAMIDE] | > 300 µM | > 10 µM | > 10 µM | > 10 µM | > 10 µM | > 10 µM | > 10 µM | > 10 µM
